Measurements published in patent US20230174485A1, “LIPOXYGENASE INHIBITORS” (SRI International, priority 2020, published 2023).
Where “and” joins values, the source holds several entries; their conditions need not be identical. Identical values can stand only once. Like-named read-outs stand apart in the source and are kept apart here.

Legend:
Type in all cases: biochemical
recombinant 5-LOX = target: T1, recombinant 5-LOX (Homo sapiens, UniProt P09917); assay: 5-LOX fluorescent assay; conditions: several values in one cell = repeat determinations; read-out: IC50 (μM) values for in vitro lipoxygenase inhibition, 5-LOX
T1 sequence (P09917 1-674): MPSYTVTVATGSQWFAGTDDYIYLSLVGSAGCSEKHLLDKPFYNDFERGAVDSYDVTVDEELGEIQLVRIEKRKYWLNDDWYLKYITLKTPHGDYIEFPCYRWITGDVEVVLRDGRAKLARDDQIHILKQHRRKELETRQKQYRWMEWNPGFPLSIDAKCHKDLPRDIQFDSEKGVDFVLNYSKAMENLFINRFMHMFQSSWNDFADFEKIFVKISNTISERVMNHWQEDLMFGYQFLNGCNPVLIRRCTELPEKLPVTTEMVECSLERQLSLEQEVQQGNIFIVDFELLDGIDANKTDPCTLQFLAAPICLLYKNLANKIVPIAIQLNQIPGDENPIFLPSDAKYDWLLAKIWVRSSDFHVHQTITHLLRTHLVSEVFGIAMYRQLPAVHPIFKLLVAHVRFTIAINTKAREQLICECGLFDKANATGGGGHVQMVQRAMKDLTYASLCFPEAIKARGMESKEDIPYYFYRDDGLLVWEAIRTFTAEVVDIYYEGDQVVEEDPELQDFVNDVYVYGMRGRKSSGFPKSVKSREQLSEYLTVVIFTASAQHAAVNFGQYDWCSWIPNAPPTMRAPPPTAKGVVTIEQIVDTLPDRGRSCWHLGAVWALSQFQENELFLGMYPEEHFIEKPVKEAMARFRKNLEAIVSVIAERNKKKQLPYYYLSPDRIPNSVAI
Description: 5-LOX FI assay Fluorescent Assay
The enzyme assay (100 μL) contained 50 mM Tris, pH 7.5, 0.1 mM EDTA, 0.3 mM CaCl2, 20 μM AA, 100 μM ATP, 1 μM DHR123, and recombinant 5-LOX cell lysate (0.5 μL/100 μL). Inhibitors (dissolved in DMSO) were plated at 1 μL into 96-well assay microplates followed by a 40 μL addition of a solution containing 5-LOX enzyme. Enzyme was pre-incubated with compounds for 15 mins. The assay was initiated by the addition of a 40 μL substrate solution containing AA and ATP, and 20 μL addition of a solution containing DHR123. Enzymatic reaction proceeded for 30 min with kinetic reading at 500 nm excitation & 536 nm emission in SpectraMax Paradigm (MolecularDevice). Percent inhibition was calculated for each compound dose for IC50 curve fitting using 4 Parameter Logistic Model or Sigmoidal Dose-Response Model.

[1] = target: T2, recombinant 12-LOX enzyme (Homo sapiens, UniProt P18054); assay: 12-LOX fluorescent assay; conditions: several values in one cell = repeat determinations
T2 sequence (P18054 1-663): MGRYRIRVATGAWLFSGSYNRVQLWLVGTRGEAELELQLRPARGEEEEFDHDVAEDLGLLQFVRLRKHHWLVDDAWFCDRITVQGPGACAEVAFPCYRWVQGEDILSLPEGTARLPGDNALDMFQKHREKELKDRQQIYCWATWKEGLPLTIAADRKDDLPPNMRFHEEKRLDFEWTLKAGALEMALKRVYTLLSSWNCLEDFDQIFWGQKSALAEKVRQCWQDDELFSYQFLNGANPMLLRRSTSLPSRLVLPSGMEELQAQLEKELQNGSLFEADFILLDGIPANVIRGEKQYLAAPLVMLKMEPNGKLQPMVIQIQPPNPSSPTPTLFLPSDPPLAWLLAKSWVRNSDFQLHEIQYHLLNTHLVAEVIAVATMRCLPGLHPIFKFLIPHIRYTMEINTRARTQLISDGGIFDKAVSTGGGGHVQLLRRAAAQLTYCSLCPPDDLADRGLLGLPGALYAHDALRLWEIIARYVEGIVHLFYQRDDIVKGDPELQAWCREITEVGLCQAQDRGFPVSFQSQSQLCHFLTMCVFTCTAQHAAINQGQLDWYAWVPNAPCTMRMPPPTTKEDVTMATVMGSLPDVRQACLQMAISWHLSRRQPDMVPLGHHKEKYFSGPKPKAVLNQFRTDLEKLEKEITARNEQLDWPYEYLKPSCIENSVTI
Description: (§1) 12-LOX/15-LOX Fluorescent Assay
(§2) The enzyme assay (100 ul) contained 50 mM Tris, pH 7.5, 0.05% Tween-20, 20 μM AA/LA, 1 μM DHR123, and 100 nM recombinant 12-LOX enzyme/50 nM recombinant 15-LOX enzyme. Inhibitors (dissolved in DMSO) were plated at 1 μL into 96-well assay microplates followed by a 40 μL addition of a solution containing 12-LOX/15-LOX enzyme. Enzyme was pre-incubated with compounds for 15 mins. The assay was initiated by the addition of a 40 μL substrate solution containing AA/LA, and 20 μL addition of a solution containing DHR123. Enzymatic reaction proceeded for 30 min with kinetic reading at 500 nm excitation & 536 nm emission in SpectraMax Paradigm (MolecularDevice). Percent inhibition was calculated for each compound dose for IC50 curve fitting using 4 Parameter Logistic Model or Sigmoidal Dose-Response Model.

[2] = target: T3, recombinant 15-LOX enzyme (Homo sapiens, UniProt P16050); assay: 15-LOX fluorescent assay; conditions: several values in one cell = repeat determinations
T3 sequence (P16050 1-662): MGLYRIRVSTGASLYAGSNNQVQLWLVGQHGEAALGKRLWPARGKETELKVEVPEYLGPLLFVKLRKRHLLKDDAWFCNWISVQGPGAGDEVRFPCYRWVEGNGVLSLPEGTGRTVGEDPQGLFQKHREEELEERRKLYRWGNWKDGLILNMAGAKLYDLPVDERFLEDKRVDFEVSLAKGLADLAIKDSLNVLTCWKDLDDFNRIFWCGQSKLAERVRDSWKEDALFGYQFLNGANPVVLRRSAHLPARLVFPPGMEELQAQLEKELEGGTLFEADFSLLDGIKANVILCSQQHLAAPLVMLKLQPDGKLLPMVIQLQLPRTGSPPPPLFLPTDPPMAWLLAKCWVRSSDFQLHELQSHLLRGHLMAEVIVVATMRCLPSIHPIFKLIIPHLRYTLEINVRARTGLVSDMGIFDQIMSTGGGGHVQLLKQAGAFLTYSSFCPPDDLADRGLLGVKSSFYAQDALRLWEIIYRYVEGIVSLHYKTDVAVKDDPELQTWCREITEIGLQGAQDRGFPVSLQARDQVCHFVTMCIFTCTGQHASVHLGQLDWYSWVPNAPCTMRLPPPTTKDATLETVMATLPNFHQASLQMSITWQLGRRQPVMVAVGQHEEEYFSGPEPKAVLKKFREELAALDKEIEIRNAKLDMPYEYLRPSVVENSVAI
Description: as §1, §2

[3] = read-out: IC50 (μM) values for in vitro lipoxygenase inhibition, 12-LOX
[4] = read-out: IC50 (μM) values for in vitro lipoxygenase inhibition, 15-LOX
[5] = IC50 (μM) values for in vitro lipoxygenase inhibition, 15-LOX

Row | SMILES | IC50 (recombinant 5-LOX) | IC50 [1, 3] | IC50 [2, 4] | IC50 [2, 5] [µM] | IC50 ([1]; IC50 (μM) values for in vitro lipoxygenase inhibition, 12-LOX) [µM]
1 | CN(C)CCOc1c2[nH]c3ccc(F)cc3c2c(F)c2[nH]c3ccc(F)cc3c12 [SS20308-0101-01, N,N-dimethyl-2-(2,8,12-trifluoro-5,11-dihydroindolo[3,2-b]carbazol-6-yloxy) ethanamine] | 0.07 µM and 0.05 µM and 0.04 µM | 0.08 µM and 0.1 µM and 0.12 µM | 40 nM (2×) and 70 nM | – | –
2 | CN(C)CCOc1cc2c3ccccc3[nH]c2c2[nH]c3ccccc3c12 [SS20308-0103-01, 2-(11,12-dihydroindolo[2,3-a]carbazol-5-yloxy)-N,N-dimethylethanamine] | 0.02 µM | 2.23 µM | 0.06 µM | – | –
3 | c1ccc(-c2cc(NCCCn3cncn3)cc3c2[nH]c2ccccc23)cc1 [SS20308-0111-01, N-(3-(1H-1,2,4-triazol-1-yl)propyl)-1-phenyl-9H-carbazol-3-amine] | 20.3 µM | 44.9 µM | 0.09 µM | – | –
4 | Cc1c2[nH]c3ccccc3c2cc2[nH]c3ccccc3c12 [SS20308-0112-01, 6-methyl-5,11-dihydroindolo[3,2-b]carbazole] | > 100 µM | > 100 µM | > 100 µM | – | –
5 | COc1ccc2c([nH]c3ccc(F)cc32)c1CCCN(C)C [SS20308-0118-01, 3-(6-fluoro-2-methoxy-9H-carbazol-1-yl)-N,N-dimethylpropan-1-amine] | 23.2 µM | 24.2 µM | – | 26.9 | –
6 | CN(C)CCOc1cc2c(cc1CNc1ccccc1)[nH]c1ccccc12 [SS20308-0119-01, N-((3-(2-(dimethylamino)ethoxy)-9H-carbazol-2-yl)methyl)aniline] | 1.04 µM | 0.83 µM | 0.71 µM | – | –
7 | CN(C)CCOc1c2[nH]c(-c3ccccc3)nc2c(F)c2c1[nH]c1ccccc12 [SS20308-0121-01, 2-(10-fluoro-2-phenyl-3,5-dihydroimidazo[4,5-b]carbazol-4-yloxy)-N,N-dimethylethanamine] | 0.53 µM | 1.16 µM | 0.86 µM | – | –
8 | CN(C)CCOc1c2nc(-c3ccccc3)[nH]c2cc2[nH]c3ccccc3c12 [SS20308-0122-01, N,N-dimethyl-2-(2-phenyl-3,5-dihydroimidazo[4,5-b]carbazol-10-yloxy)ethanamine] | 1.02 µM | 0.87 µM | – | 1.38 | –
9 | CN(C)C/C=C\c1c2[nH]c3ccccc3c2cc2[nH]c3ccccc3c12 [SS20308-0126-01, (Z)-3-(5,11-dihydroindolo[3,2-b]carbazol-6-yl)-N,N-dimethylprop-2-en-1-amine] | 0.04 µM | – | – | 0.04 | 0.04
10 | COc1c2[nH]c(-c3ccccc3)nc2c(F)c2c1[nH]c1ccccc12 [SS20308-0137-01, 10-fluoro-4-methoxy-2-phenyl-3,5-dihydroimidazo[4,5-b]carbazole] | 0.72 µM | 0.53 µM | 0.5 µM | – | –
11 | Fc1ccc2[nH]c3c(NCCn4cncn4)c(-c4ccccc4)ccc3c2c1 [SS20308-0154-01, N-(2-(1H-1,2,4-triazol-1-yl)ethyl)-6-fluoro-2-phenyl-9H-carbazol-1-amine] | 1.06 µM | 0.35 µM | 0.44 µM | – | –
12 | c1ccc(NC2CCc3[nH]c4ccccc4c3C2)cc1 (stereo not drawn) [SS20308-0158-01, N-phenyl-2,3,4,9-tetrahydro-1H-carbazol-3-amine] | 3.75 µM | 3.16 µM | 1.55 µM | – | –
13 | CN(C)CCCn1c2c(c3ccccc31)CC(Nc1ccccc1)CC2 (stereo not drawn) [SS20308-0159-01, 9-(3-(dimethylamino)propyl)-N-phenyl-2,3,4,9-tetrahydro-1H-carbazol-3-amine] | 1.85 µM | 2.75 µM | 1.59 µM | – | –
14 | CN(C)CCCc1cc(-c2cccc3c2NCC3)cc2[nH]c3ccccc3c12 [SS20308-0170-01, 3-(2-(indolin-7-yl)-9H-carbazol-4-yl)-N,N-dimethylpropan-1-amine] | 4.38 µM | 2.17 µM | 1.53 µM | – | –
15 | c1ccc2c(c1)[nH]c1cc3c(cc12)CCN3CCn1cncn1 [SS20308-0180-01, 1-(2-(1H-1,2,4-triazol-1-yl)ethyl)-1,2,3,9-tetrahydropyrrolo[2,3-b]carbazole] | 0.44 µM and 0.81 µM | 0.03 µM and 0.08 µM | 0.39 µM and 0.51 µM | – | –
16 | CN(CCn1cncn1)c1cc2c(cc1-c1ccccc1)[nH]c1ccc(F)cc12 [SS20308-0182-01, N-(2-(1H-1,2,4-triazol-1-yl)ethyl)-6-fluoro-N-methyl-2-phenyl-9H-carbazol-3-amine] | 0.77 µM | 0.31 µM | – | 1.4 | –
17 | CN(C)CCC(c1ccccc1)c1ccc2[nH]c3ccccc3c2c1 (stereo not drawn) [SS20308-0183-01, 3-(9H-carbazol-3-yl)-N,N-dimethyl-3-phenylpropan-1-amino] | 5.01 µM | 50.9 µM | 13.1 µM | – | –
18 | CN(C)CC1(COc2c3[nH]c4ccc(F)cc4c3c(F)c3[nH]c4ccc(F)cc4c23)COC1 [SS20308-0185-01, N,N-dimethyl-1-(3-((2,8,12-trifluoro-5,11-dihydroindolo[3,2-b]carbazol-6-yloxy)methyl)oxetan-3-yl)methanamine] | 0.08 µM | 0.1 µM | 0.05 µM | – | –
19 | Fc1ccc2[nH]c3cc(-c4ccccc4)c(NCC4(Cn5cncn5)COC4)cc3c2c1 [SS20308-0186-01, N-((3-((1H-1,2,4-triazol-1-yl)methyl)oxetan-3-yl)methyl)-6-fluoro-2-phenyl-9H-carbazol-3-amine] | 0.04 µM and 0.01 µM | 0.03 µM and 0.01 µM | 0.05 µM and 0.02 µM | – | –
